Experimental findings from ChEMBL document CHEMBL5154871, “Non-peptidyl non-covalent cathepsin C inhibitoEEr bearing a unique thiophene-substituted pyridine: Design, structure-activity relationship and anti-inflammatory activity in vivo” (Eur J Med Chem, 2022) are described below.

Calls of active or inactive are those of the source. The calls are words filed in the database; no cut-off is given here.

The subject of data set [1] is Mus musculus. Description: Anti-inflammatory activity against LPS-induced ALI C57BL/6 mouse model assessed as decrease in pulmonary edema by measuring decrease in lung wet/dry ratio at 2 to 50 mg/kg, po treated 1 hr prior to LPS challenge and measured after 48 hrs. As to conditions: dose 2-50 mg/kg, time 49.0 hrs. The format is functional, organism-based.
Data set [2] addresses T1, Dipeptidyl peptidase 1 (Homo sapiens, UniProt P53634). Description: Binding affinity to Cathepsin C in human U-937 cells assessed as increase in thermal stability at 10 uM measured from 46 to 52 degC after 4 hrs by cellular thermal shift assay. It is filed as cell-based.
Data set [3] has as its system Mus musculus. Description: Anti-inflammatory activity against po dosed LPS-induced ALI C57BL/6 mouse model assessed as decrease in TNF-alpha level in lungs treated 1 hr prior to LPS challenge and measured after 48 hrs by ELISA. It is filed as functional, organism-based. The note with it: dose 2-50 mg/kg, time 49.0 hrs, DDE = dose-dependent effect.
A short description of data set [4]: Acute toxicity in ICR mouse assessed as animal behavioural changes at 1500 mg/kg, po administered as single dose and measured for 7 days. It is filed as organism-based. The note with it: in vivo, time 7 day.
Data set [5] concerns Mus musculus. Description: Anti-inflammatory activity against po dosed LPS-induced ALI C57BL/6 mouse model assessed as decrease in IL-6 level in serum treated 1 hr prior to LPS challenge and measured after 48 hrs by ELISA. The format is functional, organism-based. The note with it: dose 2-50 mg/kg, time 49.0 hrs, DDE = dose-dependent effect.
The test system of data set [6] is Mus musculus. Description: Anti-inflammatory activity against LPS-induced ALI C57BL/6 mouse model assessed as increase in animal survival rate at 2 to 50 mg/kg, po treated 1 hr prior to LPS challenge and measured after 48 hrs. As to conditions: dose 2-50 mg/kg, time 49.0 hrs. It is filed as functional, organism-based.
Data set [7] addresses T1, Dipeptidyl peptidase 1. Description: Inhibition of human recombinant Cathepsin C using H-Gly-Arg-AMC as substrate pretreated for 30 mins followed by substrate addition and incubated for 60 mins by microplate reader assay.
In data set [8] the target is T2, Dipeptidyl peptidase 1 (Mus musculus) (UniProt P97821).
T2 sequence (whole entry): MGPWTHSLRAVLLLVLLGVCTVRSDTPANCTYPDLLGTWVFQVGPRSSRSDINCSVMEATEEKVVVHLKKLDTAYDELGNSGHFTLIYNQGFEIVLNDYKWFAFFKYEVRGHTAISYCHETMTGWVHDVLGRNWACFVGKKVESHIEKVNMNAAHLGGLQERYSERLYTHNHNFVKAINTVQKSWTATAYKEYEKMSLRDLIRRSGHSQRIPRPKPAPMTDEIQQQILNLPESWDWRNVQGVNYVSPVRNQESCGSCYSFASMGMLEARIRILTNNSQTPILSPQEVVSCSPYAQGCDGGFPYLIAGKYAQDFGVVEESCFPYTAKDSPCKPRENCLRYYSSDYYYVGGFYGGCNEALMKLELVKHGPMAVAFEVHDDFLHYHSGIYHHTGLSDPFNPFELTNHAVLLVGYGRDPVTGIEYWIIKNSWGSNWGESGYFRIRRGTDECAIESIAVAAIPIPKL
Description: Inhibition of Cathepsin C in C57BL/6 mouse Bone marrow cells assessed as reduction of NSPs stability by measuring stability of protease 3 at 1 uM treated for 12 hrs by Western blotting analysis. Also noted: scale not given: the % may be the effect or the level left. The format is cell-based. As to conditions: Bone marrow cell.

Data set [9] can be described thus: AUC(0 to infinity) in Sprague-Dawley rat at 2 mg/kg, iv by LC-MS/MS analysis. Also noted: time infinity, dose 2 mg/kg, route iv. The format is ADME, organism-based. As to conditions: in vivo.
Data set [10] can be described thus: Acute toxicity in ICR mouse assessed as pathological changes of spleen at 1500 mg/kg, po administered as single dose measured after 7 days by H and E staining based assay. It is filed as organism-based. As to conditions: in vivo, time 7 day.
Data set [11] concerns the target T1, Dipeptidyl peptidase 1. Description: Binding affinity to Cathepsin C in human U-937 cells assessed as increase in thermal stability measured at 52 degC after 4 hrs by cellular thermal shift assay. It is filed as cell-based. The note with it: dose 0.5-10 µM.
Data set [12] has as its system Mus musculus. Description: In vivo inhibition of cathepsin C in blood of po dosed LPS-induced ALI C57BL/6 mouse model treated 1 hr prior to LPS challenge and measured after 48 hrs. The format is functional, organism-based. The note with it: dose 2-50 mg/kg, time 49.0 hrs, DDE = dose-dependent effect.
For data set [13], the target named is T2, Dipeptidyl peptidase 1 (Mus musculus). Description: Inhibition of Cathepsin C in C57BL/6 mouse Bone marrow cells assessed as reduction of NSPs stability by measuring stability of protease 3 at 1 uM treated for 48 hrs by Western blotting analysis. It is filed as cell-based. Also noted: scale not given: the % may be the effect or the level left. As to conditions: Bone marrow cell. In general terms: A western blot detects proteins with antibodies after separation by electrophoresis.

Data set [14] is described as follows: Cmax in Sprague-Dawley rat at 2 mg/kg, iv measured after 24 hrs by LC-MS/MS analysis. It is filed as ADME, organism-based. On the set-up: time 24 hrs, dose 2 mg/kg, route iv. The note with it: in vivo.
Data set [15] concerns the target T2, Dipeptidyl peptidase 1 (Mus musculus). Description: Inhibition of Cathepsin C in C57BL/6 mouse Bone marrow cells assessed as reduction of NSPs stability by measuring stability of neutrophil elastase at 1 uM treated for 48 hrs by Western blotting analysis. The format is cell-based. On the set-up: scale not given: the % may be the effect or the level left. The note with it: Bone marrow cell.

Data set [16] shares this target. Description: Inhibition of Cathepsin C in C57BL/6 mouse Bone marrow cells assessed as reduction of NSPs stability by measuring stability of neutrophil elastase at 1 uM treated for 6 hrs by Western blotting analysis. It is filed as cell-based. Also noted: scale not given: the % may be the effect or the level left. The note with it: Bone marrow cell.
Data set [17] is described as follows: Acute toxicity in ICR mouse assessed as pathological changes of liver at 1500 mg/kg, po administered as single dose measured after 7 days by H and E staining based assay. It is filed as organism-based. As to conditions: in vivo, time 7 day.
For data set [18], the system named is Mus musculus. Description: Anti-inflammatory activity against po dosed LPS-induced ALI C57BL/6 mouse model assessed as decrease in GM-CSF level in serum treated 1 hr prior to LPS challenge and measured after 48 hrs by ELISA. The format is functional, organism-based. As to conditions: dose 2-50 mg/kg, time 49.0 hrs, DDE = dose-dependent effect. (In general: An ELISA detects its analyte on a solid surface through an enzyme-linked reagent.)

Data set [19] relates to Mus musculus. Description: In vivo inhibition of cathepsin C in po dosed LPS-induced ALI C57BL/6 mouse model assessed as downregulation of neutrophil elastase activity in blood treated 1 hr prior to LPS challenge and measured after 48 hrs. As to conditions: dose 2-50 mg/kg, time 49.0 hrs, DDE = dose-dependent effect. The format is functional, organism-based.
The target of data set [20] is T2, Dipeptidyl peptidase 1 (Mus musculus). Description: Inhibition of Cathepsin C in C57BL/6 mouse Bone marrow cells assessed as reduction of NSPs stability by measuring stability of neutrophil elastase at 1 uM treated for 12 hrs by Western blotting analysis. The note with it: Bone marrow cell. Also noted: scale not given: the % may be the effect or the level left. It is filed as cell-based.

The target in data set [21] is T1, Dipeptidyl peptidase 1. Description: Inhibition of Cathepsin C in human U-937 cells using H-Gly-Phe-AFC as substrate pretreated for 1 hr followed by substrate addition and incubated for 60 mins by microplate reader assay. The format is cell-based.
Data set [22] relates to Mus musculus. Description: In vivo inhibition of cathepsin C in po dosed LPS-induced ALI C57BL/6 mouse model assessed as downregulation of Cat G activity in bone marrow treated 1 hr prior to LPS challenge and measured after 48 hrs. It is filed as functional, organism-based. The note with it: dose 2-50 mg/kg, time 49.0 hrs, DDE = dose-dependent effect.
For data set [23], the target named is T2, Dipeptidyl peptidase 1 (Mus musculus). Description: Inhibition of Cathepsin C in C57BL/6 mouse Bone marrow cells assessed as reduction of NSPs stability by measuring stability of Cat G at 1 uM treated for 6 hrs by Western blotting analysis. The note with it: Bone marrow cell. Also noted: scale not given: the % may be the effect or the level left. It is filed as cell-based.

Data set [24] concerns Mus musculus. Description: Anti-inflammatory activity against po dosed LPS-induced ALI C57BL/6 mouse model assessed as decrease in histopatological changes of lungs treated 1 hr prior to LPS challenge and measured after 48 hrs by H and E staining based analysis. The format is functional, organism-based. The note with it: dose 2-50 mg/kg, time 49.0 hrs, DDE = dose-dependent effect.

T1 sequence (P53634 25-134 limits assumed): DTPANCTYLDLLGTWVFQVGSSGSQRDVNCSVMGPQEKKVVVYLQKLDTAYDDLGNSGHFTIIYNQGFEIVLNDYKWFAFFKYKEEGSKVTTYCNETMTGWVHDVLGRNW
T1 sequence (P53634 231-394 limits assumed): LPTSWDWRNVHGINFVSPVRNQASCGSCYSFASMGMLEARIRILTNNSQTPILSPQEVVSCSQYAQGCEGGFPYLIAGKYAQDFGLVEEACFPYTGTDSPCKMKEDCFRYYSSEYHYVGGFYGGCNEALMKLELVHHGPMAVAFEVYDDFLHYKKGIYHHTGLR
T1 sequence (P53634 395-463 limits assumed): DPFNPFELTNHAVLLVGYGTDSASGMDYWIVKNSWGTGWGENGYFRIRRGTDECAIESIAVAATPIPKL

For the molecule `CC(=O)Nc1cccc(Nc2nc(Nc3ccc(-c4ccsc4)cn3)ncc2Cl)c1`, the result in data set [1], in data set [2], in data set [6] and in data set [11] was Active. Besides, the Activity entry in data set [3] was “Dde”; in [4] it was “Non-Toxic”; in data set [5] it was “Dde”; in data set [8], 78.4%; in data set [10], “Non-Toxic”; in [13] it was 46.8%. For the same molecule, the Activity in data set [15] was 46.1%; in [16], 93.5%; in data set [17] it was “Non-Toxic”; in data set [18], “Dde”; in [20] it was 68.3%; in data set [23], 93.4%. Further, the Activity result in [24] is “Dde”. Moreover, the IC50 in [7] stood at 59.9 nM; in data set [21] it was 70.2 nM. The molecule further gave an AUC in [9] of 1124.78 ng·h/mL. In addition, the inhibition entry in [12], in [19] and in [22] was “Dde” throughout. The molecule further displayed a Cmax in [14] of 309 ng/mL.

As usually defined, the IC50 is the concentration that gives 50% inhibition. A word on the AUC: it is the area under the concentration-time curve, a measure of exposure. As usually defined, the Cmax is the highest concentration seen after dosing.
